Data as given in patent US20040009905A1 (B.M.R.A. Corporation B.V., priority 1998, published 2004).
Entries after “also recorded” stand apart in the source; their conditions may differ. Where two headings read alike, the source gives them in different places. The star is where a group is joined. aminooxyacetyl = NOCC(=O)*

Assays:
domestic pigs [1] = conditions: pig, in vivo
Protocol: Experiments were performed on 16 domestic pigs of both sexes (body weight 20-30 kg). The animals were premedicated with atropine (0.05 mg/kg) and ketamine (Ketalar, ParkeDavis, USA, 20 mg/kg i.m.) and anaesthetized with thiopentone (5 mg/kg i.v.). A tracheostomy was performed and artificial ventilation was started using a volume regulated ventilator (type Siemens 900). During surgery, continuous i.v. infusion of Ringer's solution, thiopentone (15 mg/kg/h) and pancuronium bromide (0.25 mg/kg/h) was performed. […]
2. […] Airway pressure was measured from a catheter positioned at the tip of the endotracheal tube. Transpulmonary pressure was determined by a differential pressure transducer (Hewlett-Packard 267B) taking the difference between tracheal and oesophagus pressure. Tidal volume was determined by integration of the respiratory flow signal measured with a pneumotachograph (Gould Godard, model 17212) by means of a heated Fleisch flow transducer #2 connected to the endotracheal tube. Transpulmonary pressure, tidal volume and flow were continuously recorded on a 4-channel recorder (Hewlett-Packard, 7754 GB). Total airflow resistance across the lungs (raw) was determined by dividing the difference in transpulmonary pressure by inspiratory plus expiratory flow at mid-tidal volume. […]

domestic pigs [2] = conditions: pig, in vivo; remark: listed apart in the source
Protocol: Experiments were performed on 16 domestic pigs of both sexes (body weight 20-30 kg). The animals were premedicated with atropine (0.05 mg/kg) and ketamine (Ketalar, ParkeDavis, USA, 20 mg/kg i.m.) and anaesthetized with thiopentone (5 mg/kg i.v.). A tracheostomy was performed and artificial ventilation was started using a volume regulated ventilator (type Siemens 900). During surgery, continuous i.v. infusion of Ringer's solution, thiopentone (15 mg/kg/h) and pancuronium bromide (0.25 mg/kg/h) was performed.
Catheters were placed in the femoral artery for systemic blood pressure and heart rate monitoring and in the femoral vein for thiopentone and fluid administration (300 ml/h). […] Nasal arterial blood flow was monitored with a Transonic flow probe (RB 143) placed around the sphenopalatine artery and connected to a T 202 ultrasonic blood flowmeter (Transonic System Inc., Ithaca, N.Y., USA).
Heart rate and systemic arterial blood pressure using the femoral artery catheter connected to a pressure transducer.
Sphenopalatine arterial blood flow using an Ultrasonic flow meter probe (see above).

[3] = Circular dichroism spectroscopy of conformational properties; type: physicochemical; conditions: in TFE, 295K
Protocol: The conformational properties of TASP-V were studied in solution mainly by circular dichroism (CD) spectroscopy under various experimental conditions. In order to detect effects of template attachment on secondary and tertiary structure formation, the corresponding single (not template attached) peptide IV was also studied.
CD spectra were recorded on a Jobin Yvon Dichrograph Mark VI calibrated with D(+)-10-camphorsulfonic acid. All measurements were performed at 295K using quartz cells with a path length of 0.1 cm and each spectrum was the average of three repeated scans between 185 nm to 250 nm, with an integration time of Is for 0.8 nm steps. The spectra were corrected by substraction of the background solvent spectrum obtained under identical experimental conditions and smoothed for clarity of display. CD intensities are expressed as mean residue ellipticities (deg cm2 dmol-1), calculated by dividing the total molar ellipticities by the number of amino acids in the peptide.

NPY Y2 receptor = target: T1, NPY Y2 receptor (Homo sapiens, UniProt P49146); assay: Y2 radioreceptor binding assay (125I-NPY displacement, LN319 cells); conditions: FIG. 7
T1 construct: endogenous in cells; host or cells: LN319 (human glioblastoma)
T1 sequence (P49146 1-381): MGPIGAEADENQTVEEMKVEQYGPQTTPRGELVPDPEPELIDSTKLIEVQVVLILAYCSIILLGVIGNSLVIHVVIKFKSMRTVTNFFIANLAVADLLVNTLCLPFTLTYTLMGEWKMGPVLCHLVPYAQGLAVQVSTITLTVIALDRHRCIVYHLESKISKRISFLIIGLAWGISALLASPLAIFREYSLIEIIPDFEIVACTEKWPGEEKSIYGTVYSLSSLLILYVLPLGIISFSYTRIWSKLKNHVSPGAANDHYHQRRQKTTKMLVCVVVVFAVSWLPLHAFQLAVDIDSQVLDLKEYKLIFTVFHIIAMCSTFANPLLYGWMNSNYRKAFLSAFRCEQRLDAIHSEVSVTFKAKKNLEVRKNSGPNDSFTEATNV
Protocol: Tissue culture media were purchased from Life Technologies (Basel, Switzerland) and fetal calf serum was obtained from Seromed (Berlin, Germany). 70% confluent cells were washed with PBS and harvested using 0.15% Trypsin containing 0.4 mM EDTA. Cells were further diluted 1/3 and plated onto either 60 mm cell culture dishes (Nunc, Denmark) or 12-mm glass coverslips (Huber and Co, AG, Reinach, Switzerland). Media were changed every 3 days. A human glioblastoma cell line, LN319, was used for Y2 binding studies (Greber, et al., Br. J. Pharmacol. 113:737-740 (1994)). Prior to performing binding assays, adhered LN319 cells were washed extensively with phosphate buffered saline. […] After centrifugation at 600 g for 15 minutes at a temperature of 4° C., the pellet was resuspended in the harvesting buffer. […] Incubation proceeded at room temperature for 45 minutes. Bound radioactivity was determined after separating the unbound fraction by centrifugation.

Molecule: CC[C@H](C)[C@H](NC(=O)[C@H](Cc1ccc(O)cc1)NC(=O)[C@H](Cc1c[nH]cn1)NC(=O)[C@H](CCCNC(=N)N)NC(=O)[C@H](CC(C)C)NC(=O)[C@H](C)NC(=O)[C@H](CO)NC(=O)[C@H](Cc1ccc(O)cc1)NC(=O)CNC(=O)CON=CC(=O)NCCCC[C@@H]1NC(=O)CNC(=O)[C@H](CCCCNC(=O)C=NOCC(=O)NCC(=O)N[C@@H](Cc2ccc(O)cc2)C(=O)N[C@@H](CO)C(=O)N[C@@H](C)C(=O)N[C@@H](CC(C)C)C(=O)N[C@@H](CCCNC(=N)N)C(=O)N[C@@H](Cc2c[nH]cn2)C(=O)N[C@@H](Cc2ccc(O)cc2)C(=O)N[C@H](C(=O)N[C@@H](CC(N)=O)C(=O)N[C@@H](CC(C)C)C(=O)N[C@H](C(=O)N[C@H](C(=O)N[C@@H](CCCNC(=N)N)C(=O)N[C@@H](CCC(N)=O)C(=O)N[C@@H](CCCNC(=N)N)C(=O)N[C@@H](Cc2ccc(O)cc2)C(N)=O)[C@@H](C)O)[C@@H](C)CC)[C@@H](C)CC)NC(=O)c2ccc3cccc(c3c2)CNC1=O)C(=O)N[C@@H](CC(N)=O)C(=O)N[C@@H](CC(C)C)C(=O)N[C@H](C(=O)N[C@H](C(=O)N[C@@H](CCCNC(=N)N)C(=O)N[C@@H](CCC(N)=O)C(=O)N[C@@H](CCCNC(=N)N)C(=O)N[C@@H](Cc1ccc(O)cc1)C(N)=O)[C@@H](C)O)[C@@H](C)CC [TASP-V]
- Change in heart rate or mean arterial blood pressure (domestic pigs [1]): did not induce any change
- Change in heart rate or mean arterial blood pressure (domestic pigs [2]): did not induce any change

Molecule: IV: single, not template attached aminooxyacetyl NPY21-36 amide peptide (IV in FIG. 5) (aminooxyacetyl-YSALRHYINLITRQRY-NH2; SMILES CC[C@H](C)[C@H](NC(=O)[C@H](Cc1ccc(O)cc1)NC(=O)[C@H](Cc1c[nH]cn1)NC(=O)[C@H](CCCNC(=N)N)NC(=O)[C@H](CC(C)C)NC(=O)[C@H](C)NC(=O)[C@H](CO)NC(=O)[C@H](Cc1ccc(O)cc1)NC(=O)CON)C(=O)N[C@@H](CC(N)=O)C(=O)N[C@@H](CC(C)C)C(=O)N[C@H](C(=O)N[C@H](C(=O)N[C@@H](CCCNC(=N)N)C(=O)N[C@@H](CCC(N)=O)C(=O)N[C@@H](CCCNC(=N)N)C(=O)N[C@@H](Cc1ccc(O)cc1)C(N)=O)[C@@H](C)O)[C@@H](C)CC; UniProt P01303 49-64, looked up, fragment)
- Helicity / secondary structure content by CD [3]: < 30%

Molecule: Leu31, Pro34 NPY: Leu31- and Pro34-substituted NPY, shown to be a Y1 agonist
- Affinity / binding to the Y2 receptor (in words) (NPY Y2 receptor): poor affinity binding; also recorded: bound poorly
